Assay results taken from the NIST ThermoML archive (doi:10.1021/je060107n).

Assay: mn = molality of the nth substance listed, in mol/kg
Settings: 101 kPa, Liquid; for viscosity: Capillary tube (Ostwald / Ubbelohde) method; for speed of sound: Linear variable-path acoustic interferometer

CC(=O)[O-].CC(=O)[O-].[Mg+2] [magnesium acetate] + O
Settings | speed of sound, 273.15 K [m/s] | speed of sound, 278.15 K [m/s] | speed of sound, 283.15 K [m/s] | speed of sound, 288.15 K [m/s] | viscosity, 273.15 K [mPa·s] | viscosity, 278.15 K [mPa·s] | viscosity, 283.15 K [mPa·s] | viscosity, 288.15 K [mPa·s] | viscosity, 293.15 K [mPa·s]
m1 = 0.0414 | 1411.1 | 1433.9 | 1453.9 | 1471.7 | 1.895 | 1.603 | 1.374 | 1.196 | 1.052
m1 = 0.0831 | 1421.7 | 1443.6 | 1464.2 | 1481.5 | 1.974 | 1.663 | 1.423 | 1.238 | 1.089
m1 = 0.1671 | 1435.8 | 1458.6 | 1477 | 1494.1 | 2.142 | 1.805 | 1.54 | 1.335 | 1.17
m1 = 0.4247 | 1486.1 | 1504.5 | 1522.7 | 1535.1 | 2.763 | 2.301 | 1.954 | 1.677 | 1.461
m1 = 0.646 | 1523.6 | 1539.4 | 1553.8 | 1566.5 | 3.52 | 2.887 | 2.444 | 2.072 | 1.788
m1 = 0.8751 | 1563.5 | 1571.6 | 1584.2 | 1601.1 | 4.302 | 3.533 | 2.956 | 2.499 | 2.15
m1 = 1.106 | 1599.6 | 1611.8 | 1622.1 | 1631.4 | 5.537 | 4.511 | 3.725 | 3.138 | 2.678
m1 = 1.354 | 1633.9 | 1644.1 | 1651.4 | 1659.4 | 7.125 | 5.709 | 4.687 | 3.895 | 3.294
m1 = 1.608 | 1670.3 | 1679.6 | 1685.9 | 1692.8 | 7.125 | 5.709 | 4.687 | 3.895 | 3.294
m1 = 1.866 | 1705.9 | 1713 | 1718.2 | 1722.3 | 12.12 | 9.522 | 7.615 | 6.192 | 5.143
m1 = 2.134 | 1742.2 | 1746.8 | 1750.4 | 1752.7 | 16.35 | 12.57 | 9.905 | 8.005 | 6.573
m1 = 2.411 | 1777.1 | 1780.1 | 1781.4 | 1782.9 | 23.36 | 17.59 | 13.67 | 10.8 | 8.745
m1 = 2.622 | 1797.1 | 1799.2 | 1799.1 | 1799.1 | 28.17 | 21.2 | 16.25 | 12.79 | 10.25
m1 = 3.043 | 1840.9 | 1839.8 | 1838.2 | 1835.6 | 45.46 | 33.22 | 24.92 | 19.07 | –
m1 = 3.437 | 1885.2 | 1881.6 | 1877.4 | 1872.2 | 85.35 | 59.47 | 43.12 | 31.95 | –
m1 = 3.819 | 1910.1 | 1903.6 | 1897.9 | 1891.9 | – | – | – | – | –
m1 = 4.001 | – | – | – | – | 167.7 | 110.6 | 77.03 | 55.77 | –
m1 = 4.547 | 1953.7 | 1945.3 | 1936.1 | 1927.4 | – | – | – | – | –
m1 = 4.563 | – | – | – | – | 374.7 | 234.4 | 153.7 | 105.5 | –
m1 = 4.929 | – | – | – | – | – | – | 208.4 | 140.3 | –
m1 = 5.165 | – | – | 1964.1 | 1953.3 | – | – | – | – | –
